Experimental data as given in the supplement of paper PMC11208160.

Test: recombinant barcode read abundance after kanamycin selection (control-corrected) (log10(CPM+1)); higher = more efficient recombination; sequences stand for … in AGTGCAGAGAAAATCGGCCAGTTTTCTCTGCCTGCAGTCCGCATGCCGT…ATTTATGCAGCGGACTGCCTTTCTCCCAAAGTGATAAACCGGACAGTATCATGGACCGGTTTTCCCGGTAATCCGTATTTGCAAGGTTGGTTTCACT; site = the 11-nt target
In short: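 Duplicate cultures were plated either on chloramphenicol/ampicillin LB agar, serving as control, or on chloramphenicol/ampicillin/kanamycin with 0.1 mM IPTG. These came from a pooled E. coli library co-electroporated with a donor plasmid, each member pairing a target with an IS621 bridge RNA target-binding loop. Recombination efficiency equals averaged, control-corrected counts per million of recombinant-junction barcodes. It is listed as log10(CPM+1).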

“TCTACCCGATGGGTTCTAACCTGTTGCTGAG [TCTACCCCTCA_LTGcore_GA_RTGcore_CT] (site TCTACCCCTCA) (LTG core: GA, RTG core: CT)” and “TCTACCCGGTGGGTTCTAACCTGTTGCTGCC [TCTACCCCTCA_LTGcore_GG_RTGcore_GG] (site TCTACCCCTCA) (LTG core: GG, RTG core: GG)” are within 0.2 log units of each other in “recombinant barcode read abundance (log10)” value: 0.208 for the first, 0.108 for the second.

“TCTACCCTCTGGGTTCTAACCTGTTGCTGAG [TCTACCCCTCA_LTGcore_TC_RTGcore_CT] (site TCTACCCCTCA) (LTG core: TC, RTG core: CT)” and “TCTACCCTCTGGGTTCTAACCTGTTGCTGGA [TCTACCCCTCA_LTGcore_TC_RTGcore_TC] (site TCTACCCCTCA) (LTG core: TC, RTG core: TC)” are within 0.2 log units of each other in “recombinant barcode read abundance (log10)” value: 0.0968 for the first, 0.032 for the second.

“TGATACCACTGGGTTCTAACCTGTTGCGTGT [TGATACCCTAC_LTGcore_AC_RTGcore_AC] (site TGATACCCTAC) (LTG core: AC, RTG core: AC)” and “TGATACCCATGGGTTCTAACCTGTTGCGTAG [TGATACCCTAC_LTGcore_CA_RTGcore_CT] (site TGATACCCTAC) (LTG core: CA, RTG core: CT)” are within 0.2 log units of each other in “recombinant barcode read abundance (log10)” value: 0.136 for the first, 0.328 for the second.

Going from “TGATACCCCTGGGTTCTAACCTGTTGCGTAG [TGATACCCTAC_LTGcore_CC_RTGcore_CT] (site TGATACCCTAC) (LTG core: CC, RTG core: CT)” to “TGATACCCTTGGGTTCTAACCTGTTGCGTAA [TGATACCCTAC_LTGcore_CT_RTGcore_TT] (site TGATACCCTAC) (LTG core: CT, RTG core: TT)”, the “recombinant barcode read abundance (log10)” value rises from 0.566 to 0.882.

Going from “TGATACCCTTGGGTTCTAACCTGTTGCGTAT [TGATACCCTAC_LTGcore_CT_RTGcore_AT] (site TGATACCCTAC) (LTG core: CT, RTG core: AT)” to “TGATACCTATGGGTTCTAACCTGTTGCGTAG [TGATACCCTAC_LTGcore_TA_RTGcore_CT] (site TGATACCCTAC) (LTG core: TA, RTG core: CT)”, the “recombinant barcode read abundance (log10)” value falls from 0.624 to 0.0864.

“TGATACCTATGGGTTCTAACCTGTTGCGTTA [TGATACCCTAC_LTGcore_TA_RTGcore_TA] (site TGATACCCTAC) (LTG core: TA, RTG core: TA)” and “TGATACCTCTGGGTTCTAACCTGTTGCGTGA [TGATACCCTAC_LTGcore_TC_RTGcore_TC] (site TGATACCCTAC) (LTG core: TC, RTG core: TC)” are within 0.2 log units of each other in “recombinant barcode read abundance (log10)” value: 0.0463 for the first, 0.0566 for the second.

“TGATACCTTTGGGTTCTAACCTGTTGCGTAA [TGATACCCTAC_LTGcore_TT_RTGcore_TT] (site TGATACCCTAC) (LTG core: TT, RTG core: TT)” and “TGTATTCAATGGGTTCTAACCTGTTGCCTAG [TGTATTCCTAG_LTGcore_AA_RTGcore_CT] (site TGTATTCCTAG) (LTG core: AA, RTG core: CT)” are within 0.2 log units of each other in “recombinant barcode read abundance (log10)” value: 0.0482 for the first, 0.0633 for the second.

“TGTATTCAATGGGTTCTAACCTGTTGCCTTT [TGTATTCCTAG_LTGcore_AA_RTGcore_AA] (site TGTATTCCTAG) (LTG core: AA, RTG core: AA)” and “TGTATTCCCTGGGTTCTAACCTGTTGCCTAG [TGTATTCCTAG_LTGcore_CC_RTGcore_CT] (site TGTATTCCTAG) (LTG core: CC, RTG core: CT)” are within 0.2 log units of each other in “recombinant barcode read abundance (log10)” value: 0.0627 for the first, 0.168 for the second.

“TGTATTCCTTGGGTTCTAACCTGTTGCCTCG [TGTATTCCTAG_LTGcore_CT_RTGcore_CG] (site TGTATTCCTAG) (LTG core: CT, RTG core: CG)” and “TGTATTCCTTGGGTTCTAACCTGTTGCCTGA [TGTATTCCTAG_LTGcore_CT_RTGcore_TC] (site TGTATTCCTAG) (LTG core: CT, RTG core: TC)” are within 0.2 log units of each other in “recombinant barcode read abundance (log10)” value: 0.161 for the first, 0.0266 for the second.

Going from “TGTATTCCTTGGGTTCTAACCTGTTGCCTTC [TGTATTCCTAG_LTGcore_CT_RTGcore_GA] (site TGTATTCCTAG) (LTG core: CT, RTG core: GA)” to “TGTATTCGCTGGGTTCTAACCTGTTGCCTGC [TGTATTCCTAG_LTGcore_GC_RTGcore_GC] (site TGTATTCCTAG) (LTG core: GC, RTG core: GC)”, the “recombinant barcode read abundance (log10)” value rises from 0.0942 to 0.312.

“TGTATTCTGTGGGTTCTAACCTGTTGCCTCA [TGTATTCCTAG_LTGcore_TG_RTGcore_TG] (site TGTATTCCTAG) (LTG core: TG, RTG core: TG)” and “TTATAAAAGTGGGTTCTAACCTGTTGCCTAG [TTATAAACTAG_LTGcore_AG_RTGcore_CT] (site TTATAAACTAG) (LTG core: AG, RTG core: CT)” are within 0.2 log units of each other in “recombinant barcode read abundance (log10)” value: 0.205 for the first, 0.0357 for the second.

Going from “TTATAAACATGGGTTCTAACCTGTTGCCTAG [TTATAAACTAG_LTGcore_CA_RTGcore_CT] (site TTATAAACTAG) (LTG core: CA, RTG core: CT)” to “TTATAAACGTGGGTTCTAACCTGTTGCCTAG [TTATAAACTAG_LTGcore_CG_RTGcore_CT] (site TTATAAACTAG) (LTG core: CG, RTG core: CT)”, the “recombinant barcode read abundance (log10)” value falls from 0.314 to 0.111.

“TTATAAACTTGGGTTCTAACCTGTTGCCTAA [TTATAAACTAG_LTGcore_CT_RTGcore_TT] (site TTATAAACTAG) (LTG core: CT, RTG core: TT)” and “TTATAAAGATGGGTTCTAACCTGTTGCCTAG [TTATAAACTAG_LTGcore_GA_RTGcore_CT] (site TTATAAACTAG) (LTG core: GA, RTG core: CT)” are within 0.2 log units of each other in “recombinant barcode read abundance (log10)” value: 0.0141 for the first, 0.0604 for the second.

“TTATAAAGTTGGGTTCTAACCTGTTGCCTAC [TTATAAACTAG_LTGcore_GT_RTGcore_GT] (site TTATAAACTAG) (LTG core: GT, RTG core: GT)” and “TTATAAATGTGGGTTCTAACCTGTTGCCTCA [TTATAAACTAG_LTGcore_TG_RTGcore_TG] (site TTATAAACTAG) (LTG core: TG, RTG core: TG)” are within 0.2 log units of each other in “recombinant barcode read abundance (log10)” value: 0.0636 for the first, 0.0981 for the second.
